The results in this text go back to ChEMBL document CHEMBL1201862, “PubChem BioAssay data set” (2004).

Structures are written as SMILES. Activity calls are given as the source filed them.

In one experiment the test system is Streptococcus. The experiment in a line: Group A Streptococcus viability loss, dose response, counter-screen for streptokinase expression inhibitor project, luminescence, BacTiterGlo (AID 1915).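 Also: potency for reduction of bacterial viability or growth.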 Format: functional, organism-based.
Conditions: not given
For orientation: A counterscreen serves to expose hits that act by an unwanted route or on another target.
One may read the EC50 as the concentration that produces a half-maximal response. `CCCCCCCCCCCC1=C(O)C(=O)C=C(O)C1=O` [EMBELIN]: the EC50 was 3.32 µM (active).

Test system in the next experiment: not listed separately
Nature of the experiment: NIH-3T3 fibroblast cytotoxicity, dose response, cytotoxicity control, cell-based, fluorescence, Alamar Blue, secondary assay (AID 2327).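 Also: NIH-3T3 mouse fibroblasts cultured with fluconazole at 8 µg/mL.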 Format: functional.
Conditions: not given
(Alamar Blue is a resazurin reagent that responds to reducing activity.)
With `CCCCCCCCCCCC1=C(O)C(=O)C=C(O)C1=O` [EMBELIN], the EC50 is 5.02 µM (inconclusive).

For another experiment, the system named is INS1. The experiment in a line: beta cell apoptosis inhibitors, cytokine rescue, dose response, luminescence, retest (AID 449756).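 Also: cell death triggered by IL-1 beta plus TNF-alpha plus IFN-gamma mixture; protective hits raise ATP signal compared with cytokine alone wells.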 Format: functional, cell-based. As to conditions: Rattus norvegicus.
As a reminder, the AC50 is the midpoint of the concentration-response curve, whichever way the signal moves. `COc1ccc2cc1Oc1ccc(cc1)C[C@H]1c3cc(c(OC)cc3CCN1C)Oc1c(O)c(OC)cc3c1[C@H](C2)N(C)CC3` [FANGCHINOLINE]: the AC50 is 5.84 µM (active).

In another experiment the test system is P388/ADR. Nature of the experiment: cells. Type of experiment: functional. As to conditions: Mus musculus.
For orientation: GI50 means the concentration at which growth is held to half of that of the control. On to `CN(C(=O)c1ccc(OCCCC(=O)O)c(Cl)c1Cl)C1CCCC1`, for which the GI50 is > 100 µM (inactive).
Consider `CCCCCCCCCCCC1=C(O)C(=O)C=C(O)C1=O` [EMBELIN], for which the GI50 was 9.66 µM (inactive).
Same read-out and setting: the value for `COc1ccc2cc1Oc1ccc(cc1)C[C@H]1c3cc(c(OC)cc3CCN1C)Oc1c(O)c(OC)cc3c1[C@H](C2)N(C)CC3` [FANGCHINOLINE] was 2.58 µM (inactive).
Turning to `CC(=O)NCCCCCCNC(C)=O` [HEXAMETHYLENEBISACETAMIDE], the GI50 was 3520 µM (inactive).

For the next experiment, the system named is Streptococcus sp. 'group A'. The experiment in a line: growth inhibition of control SK(-) GAS strain, dose response, counter-screen for streptokinase expression inhibitor project, luminescence, kanamycin, BacTiterGlo, confirmation (AID 1900). Type of experiment: functional, organism-based.
Conditions: not given
Regarding `CCCCCCCCCCCC1=C(O)C(=O)C=C(O)C1=O` [EMBELIN], the EC50 was 1.58 µM (active).

Test system in the next experiment: not listed separately
Nature of the experiment: inhibitors of HIV Env-driven cell fusion, dose response, cherry-pick (AID 652057). Type of experiment: functional, cell-based.
Conditions: not given
For `C[C@@H]1CN([C@@H](C)CO)C(=O)c2cccc(NC(=O)C3CCCCC3)c2O[C@H]1CN(C)CC1CCCCC1`, the AC50 was 3.12 µM (active).
Still for that read-out and setting: the figure for `C[C@H](CO)N1C[C@H](C)[C@H](CN(C)S(=O)(=O)c2ccc(F)cc2)Oc2ccc(NS(=O)(=O)c3ccccc3)cc2CC1=O` is 16.8 µM (active).
`C[C@H](C(=O)N(C)C[C@@H]1OCc2ccccc2-c2ccccc2C(=O)N([C@@H](C)CO)C[C@@H]1C)c1ccccc1`: the AC50 is < 0.26 µM (active).
On the same count and under the same terms, the figure for `C[C@H](CO)N1C[C@H](C)[C@H](CN(C)S(=O)(=O)c2cccs2)Oc2ccc(NC(=O)C3CCCCC3)cc2CC1=O` is 0.436 µM (active).

A further experiment deals with SN12K1. The experiment in a line: cells. Type of experiment: functional. As to conditions: Homo sapiens.
Consider `CN(C(=O)c1ccc(OCCCC(=O)O)c(Cl)c1Cl)C1CCCC1`, for which the GI50 was > 89.5 µM (inactive).
The same measure, in the same setting: the value for `CCCCCCCCCCCC1=C(O)C(=O)C=C(O)C1=O` [EMBELIN] was 3.74 µM (inactive); that for `COc1ccc2cc1Oc1ccc(cc1)C[C@H]1c3cc(c(OC)cc3CCN1C)Oc1c(O)c(OC)cc3c1[C@H](C2)N(C)CC3` [FANGCHINOLINE] was 18.3 µM (inactive).
For `CC(=O)NCCCCCCNC(C)=O` [HEXAMETHYLENEBISACETAMIDE], the GI50 was 9930 µM (inactive).

Test system in another experiment: not listed separately
Nature of the experiment: inhibitors of clade B AD8 Env fusion, dose response, cell-based, cherry-pick (AID 652062).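 Also: luciferase signal from cell-cell fusion driven by HIV-1 clade B AD8 Env; potency is for inhibitors of fusion seen as a drop in luminescence.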
Conditions: not given
Type of experiment: functional.
As to `C[C@@H]1CN([C@@H](C)CO)C(=O)c2cccc(NC(=O)C3CCCCC3)c2O[C@H]1CN(C)CC1CCCCC1`, the AC50 was 67.1 µM (active).
On the same count and under the same terms, the figure for `C[C@H](CO)N1C[C@H](C)[C@H](CN(C)S(=O)(=O)c2ccc(F)cc2)Oc2ccc(NS(=O)(=O)c3ccccc3)cc2CC1=O` is 28.2 µM (active); for `C[C@H](C(=O)N(C)C[C@@H]1OCc2ccccc2-c2ccccc2C(=O)N([C@@H](C)CO)C[C@@H]1C)c1ccccc1` it is < 0.26 µM (active).
In the case of `C[C@H](CO)N1C[C@H](C)[C@H](CN(C)S(=O)(=O)c2cccs2)Oc2ccc(NC(=O)C3CCCCC3)cc2CC1=O`, the AC50 was 5.23 µM (active).

A further experiment relates to P388. The experiment in a line: cells. Format: functional. As to conditions: Mus musculus.
With `CN(C(=O)c1ccc(OCCCC(=O)O)c(Cl)c1Cl)C1CCCC1`, the GI50 is > 100 µM (inactive).
As for `CCCCCCCCCCCC1=C(O)C(=O)C=C(O)C1=O` [EMBELIN], the GI50 was 1.78 µM (inactive).
Take `COc1ccc2cc1Oc1ccc(cc1)C[C@H]1c3cc(c(OC)cc3CCN1C)Oc1c(O)c(OC)cc3c1[C@H](C2)N(C)CC3` [FANGCHINOLINE]: the GI50 is 2 µM (inactive).
The same measure, in the same setting: the value for `CC(=O)NCCCCCCNC(C)=O` [HEXAMETHYLENEBISACETAMIDE] was 4260 µM (inactive).

The target in a further experiment is T1, Calpain-2 catalytic subunit (Sus scrofa, UniProt P43367).
T1 sequence (P43367 whole entry): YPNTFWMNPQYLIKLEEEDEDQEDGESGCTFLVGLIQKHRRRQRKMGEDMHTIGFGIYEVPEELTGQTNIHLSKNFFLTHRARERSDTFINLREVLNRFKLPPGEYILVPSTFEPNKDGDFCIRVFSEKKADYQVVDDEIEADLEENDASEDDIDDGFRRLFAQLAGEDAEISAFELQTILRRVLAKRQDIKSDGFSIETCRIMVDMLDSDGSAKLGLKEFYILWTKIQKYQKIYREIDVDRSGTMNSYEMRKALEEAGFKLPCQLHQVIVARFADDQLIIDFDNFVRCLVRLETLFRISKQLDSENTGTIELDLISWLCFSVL
The experiment in a line: pig calpain II inhibitor potency, dose response, biochemical, fluorogenic peptide substrate (AID 1420). Type of experiment: functional.
Conditions: not given
By IC50 is commonly meant the point on the concentration scale where inhibition reaches its midpoint. On to `CSc1ncccc1C(=O)OCC(=O)Nc1ccc2c(c1)OCO2`, for which the IC50 is < 0.4 µM (not active).
`CCOc1ccc(OCc2ccc(C(=O)N3CCCC(C)C3)cc2)cc1` (centres undefined): the IC50 was 10.5 µM (active).
With `COc1cccc(CNc2ccc([N+](=O)[O-])c(NCC(=O)O)n2)c1`, the IC50 was 5.38 µM (active).
Same read-out and setting: the value for `Cc1ccc(CNc2nc(Cl)c(C#N)s2)cc1` was 4.33 µM (not active); that for `CCOC(=O)c1sc(SCC(=O)Nc2ccc(N(C)C)cc2)nc1N` was 30.7 µM (not active).
Same read-out and setting: the value for `CCCc1cc(-c2nnc(S)n2CC(C)C)cs1` was > 50 µM (not active); that for `O=C(NCC(=O)N(c1ccc(F)cc1)C(C(=O)NC1CCCC1)c1cccnc1)c1cccs1` (centres undefined) was < 0.4 µM (not active).
Same read-out and setting: the value for `Cc1noc(C)c1COC(=O)CNC(=O)c1cccc(F)c1` was > 50 µM (not active); that for `Cc1cccc(OCCC(=O)Nc2ccc(C)c(S(=O)(=O)N3CCCCC3)c2)c1` was 5.33 µM (not active); that for `Cc1ccc(NCC(=O)N/N=C/c2c[nH]c3ccccc23)cc1` was 16.1 µM (not active).
